Experimental data taken from patent US20250195551A1 (L4 BIO LLC, priority 2023, published 2025).

Key:
[1] = target: T1, purinergic P2X4 receptors (Homo sapiens, UniProt Q99571); details: interaction with purinergic P2X4 receptors in humans; cited from earlier work
T1 sequence (Q99571 1-388): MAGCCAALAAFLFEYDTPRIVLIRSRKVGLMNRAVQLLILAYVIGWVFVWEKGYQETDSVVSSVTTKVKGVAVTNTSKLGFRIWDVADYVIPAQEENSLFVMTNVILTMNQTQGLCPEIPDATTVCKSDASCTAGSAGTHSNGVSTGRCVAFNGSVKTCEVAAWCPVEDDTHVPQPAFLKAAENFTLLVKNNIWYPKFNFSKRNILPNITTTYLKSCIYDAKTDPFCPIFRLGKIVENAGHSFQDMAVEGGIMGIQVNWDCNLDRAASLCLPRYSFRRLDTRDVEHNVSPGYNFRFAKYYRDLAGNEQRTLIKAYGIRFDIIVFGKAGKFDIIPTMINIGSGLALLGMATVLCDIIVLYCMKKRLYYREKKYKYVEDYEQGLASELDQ

[2] = target: 7-aminobutyric acid A (GABAA) receptor; details: interaction with GABAA receptor in humans; cited from earlier work
[3] = target: neuronal alpha-7-nicotinic receptor (Homo sapiens, UniProt P36544); details: interaction with neuronal alpha-7-nicotinic receptor in humans; cited from earlier work
[4] = Excipient compatibility study; type: physicochemical; details: for Chromatographic purity by HPLC (Assay) / Total Impurities % (excluding API impurities %): 40° C./75% RH
Protocol: An excipient compatibility study was initiated with selected excipients ranging from oils to surfactants based on equilibrium solubility results (Table 2). […] After solutions were prepared using a hand-held homogenizer (Model IKAT10 Ultra-Turrax), each excipient sample was aliquoted in amber vials, approximately 10% water was added in each excipient aliquot, and bench scale gel stripe OET-004037 was also made and added in a separate set of aliquot samples at approximately 1:1 w/w.
All samples were stored at 40° C./75% relative humidity (RH) condition (Model: Lunaire environmental chamber) and tested by developmental reversed phase HPLC method for Assay/Related Substances at T=0, 2 weeks, and 1 month.

[5] = in Fractionated coconut oil, Sample: 10% water, T = 2 weeks
[6] = in Fractionated coconut oil, Sample: Control, T = 0
[7] = in Fractionated coconut oil, Sample: Control, T = 2 weeks
[8] = in Fractionated coconut oil, Sample: Gel Stripe (1:1 w/w), T = 2 weeks
[9] = in Labrasol ALF, Sample: 10% water, T = 1 months
[10] = in Labrasol ALF, Sample: 10% water, T = 2 weeks
[11] = in Labrasol ALF, Sample: Control, T = 0
[12] = in Labrasol ALF, Sample: Control, T = 1 months
[13] = in Labrasol ALF, Sample: Control, T = 2 weeks
[14] = in Labrasol ALF, Sample: Gel Stripe (1:1 w/w), T = 1 months
[15] = in Labrasol ALF, Sample: Gel Stripe (1:1 w/w), T = 2 weeks
[16] = in Maisine CC, Sample: 10% water, T = 1 months
[17] = in Maisine CC, Sample: 10% water, T = 2 weeks
[18] = in Maisine CC, Sample: Control, T = 0
[19] = in Maisine CC, Sample: Control, T = 1 months
[20] = in Maisine CC, Sample: Control, T = 2 weeks
[21] = in Maisine CC, Sample: Gel Stripe (1:1 w/w), T = 1 months
[22] = in Maisine CC, Sample: Gel Stripe (1:1 w/w), T = 2 weeks
[23] = in Masester E8120, Sample: 10% water, T = 1 months
[24] = in Masester E8120, Sample: 10% water, T = 2 weeks
[25] = in Masester E8120, Sample: Control, T = 0
[26] = in Masester E8120, Sample: Control, T = 1 months
[27] = in Masester E8120, Sample: Control, T = 2 weeks
[28] = in Masester E8120, Sample: Gel Stripe (1:1 w/w), T = 1 months
[29] = in Masester E8120, Sample: Gel Stripe (1:1 w/w), T = 2 weeks
[30] = in Oleic acid, Sample: 10% water, T = 2 weeks
[31] = in Oleic acid, Sample: Control, T = 0

Chain of neuronal alpha-7-nicotinic receptor (P36544 23-502): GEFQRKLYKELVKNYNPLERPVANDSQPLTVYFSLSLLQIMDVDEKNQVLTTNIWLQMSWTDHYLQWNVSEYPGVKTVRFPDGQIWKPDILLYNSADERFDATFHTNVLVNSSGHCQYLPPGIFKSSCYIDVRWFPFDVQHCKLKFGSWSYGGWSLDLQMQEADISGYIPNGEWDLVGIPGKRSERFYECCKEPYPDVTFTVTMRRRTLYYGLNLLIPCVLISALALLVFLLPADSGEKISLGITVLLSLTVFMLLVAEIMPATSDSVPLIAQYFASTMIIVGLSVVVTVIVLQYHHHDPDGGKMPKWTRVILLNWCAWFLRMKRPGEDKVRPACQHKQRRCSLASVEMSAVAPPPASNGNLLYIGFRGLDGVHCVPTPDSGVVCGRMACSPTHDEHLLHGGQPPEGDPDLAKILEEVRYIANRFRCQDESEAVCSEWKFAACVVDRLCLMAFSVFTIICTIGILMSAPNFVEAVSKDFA

ivermectin
EC50 [1]: ~250 nM | EC50 [2]: ~920 nM | EC50 [3]: ~30000 nM | Chemical compatibility with the API ([4]; PEG 400 as co-solvent): poor chemical compatibility | Chemical compatibility with the API ([4]; Vitamin E TPGS compared with Tween 80 and Labrasol ALF (surfactants)): best chemical compatibility | Chromatographic purity by HPLC (Assay) [4, 5]: 97.83 % area | Total Impurities % (excluding API impurities %) [4, 5]: <LOQ | Chromatographic purity by HPLC (Assay) [4, 6]: 95.61 % area | Total Impurities % (excluding API impurities %) [4, 6]: <LOQ | Chromatographic purity by HPLC (Assay) [4, 7]: 97.94 % area | Total Impurities % (excluding API impurities %) [4, 7]: <LOQ | Chromatographic purity by HPLC (Assay) [4, 8]: 94.42 % area | Total Impurities % (excluding API impurities %) [4, 8]: 3.28 % adjusted area | Chromatographic purity by HPLC (Assay) [4, 9]: 89.91 % area | Total Impurities % (excluding API impurities %) [4, 9]: 8.76 % adjusted area | Chromatographic purity by HPLC (Assay) [4, 10]: 93.91 % area | Total Impurities % (excluding API impurities %) [4, 10]: 3.46 % adjusted area | Chromatographic purity by HPLC (Assay) [4, 11]: 97.74 % area | Total Impurities % (excluding API impurities %) [4, 11]: <LOQ | Chromatographic purity by HPLC (Assay) [4, 12]: 81.35 % area | Total Impurities % (excluding API impurities %) [4, 12]: 20.49 % adjusted area | Chromatographic purity by HPLC (Assay) [4, 13]: 89.16 % area | Total Impurities % (excluding API impurities %) [4, 13]: 8.67 % adjusted area | Chromatographic purity by HPLC (Assay) [4, 14]: 96.49 % area | Total Impurities % (excluding API impurities %) [4, 14]: 1.06 % adjusted area | Chromatographic purity by HPLC (Assay) [4, 15]: 97.11 % area | Total Impurities % (excluding API impurities %) [4, 15]: 0.30 % adjusted area | Chromatographic purity by HPLC (Assay) [4, 16]: 96.83 % area | Total Impurities % (excluding API impurities %) [4, 16]: 0.69 % adjusted area | Chromatographic purity by HPLC (Assay) [4, 17]: 95.90 % area | Total Impurities % (excluding API impurities %) [4, 17]: 0.45 % adjusted area | Chromatographic purity by HPLC (Assay) [4, 18]: 97.13 % area | Total Impurities % (excluding API impurities %) [4, 18]: 0.58 % adjusted area | Chromatographic purity by HPLC (Assay) [4, 19]: 96.82 % area | Total Impurities % (excluding API impurities %) [4, 19]: 0.71 % adjusted area | Chromatographic purity by HPLC (Assay) [4, 20]: 96.00 % area | Total Impurities % (excluding API impurities %) [4, 20]: 0.35 % adjusted area | Chromatographic purity by HPLC (Assay) [4, 21]: 96.94 % area | Total Impurities % (excluding API impurities %) [4, 21]: 0.58 % adjusted area | Chromatographic purity by HPLC (Assay) [4, 22]: 96.15 % area | Total Impurities % (excluding API impurities %) [4, 22]: 0.33 % adjusted area | Chromatographic purity by HPLC (Assay) [4, 23]: 91.68 % area | Total Impurities % (excluding API impurities %) [4, 23]: 6.60 % adjusted area | Chromatographic purity by HPLC (Assay) [4, 24]: 95.11 % area | Total Impurities % (excluding API impurities %) [4, 24]: 2.27 % adjusted area | Chromatographic purity by HPLC (Assay) [4, 25]: 97.58 % area | Total Impurities % (excluding API impurities %) [4, 25]: 0.17 % adjusted area | Chromatographic purity by HPLC (Assay) [4, 26]: 97.06 % area | Total Impurities % (excluding API impurities %) [4, 26]: 0.45 % adjusted area | Chromatographic purity by HPLC (Assay) [4, 27]: 96.81 % area | Total Impurities % (excluding API impurities %) [4, 27]: 0.58 % adjusted area | Chromatographic purity by HPLC (Assay) [4, 28]: 97.31 % area | Total Impurities % (excluding API impurities %) [4, 28]: 0.18 % adjusted area | Chromatographic purity by HPLC (Assay) [4, 29]: 97.35 % area | Total Impurities % (excluding API impurities %) [4, 29]: 0.11 % adjusted area | Chromatographic purity by HPLC (Assay) [4, 30]: 86.02 % area | Total Impurities % (excluding API impurities %) [4, 30]: 9.89 % adjusted area | Chromatographic purity by HPLC (Assay) [4, 31]: 99.60 % area | Total Impurities % (excluding API impurities %) [4, 31]: <LOQ | Chromatographic purity by HPLC (Assay) ([4]; in Oleic acid, Sample: Control, T = 2 weeks): 83.55 % area
